Source: patent publication US12606528B2, “Methods and materials for inhibiting NF-kB activity” (University of Pittsburgh - Of the Commonwealth System of …, priority 2019, dated 2026)
Where two headings read alike, the source gives them in different places.

Key:
[1] = test system: TNF release; assay: TNF assay: TNF release from LPS-stimulated human PBMCs (TNF ELISA); format: cell-based; settings: PBMC, read-out: IC50 (TNF assay)
Experimental: 25k THP1-NF-κB-LUC cells were dispensed into 384 well plate (per well). Cells were treated with compounds with various concentrations for 2 hours before addition of LPS (10 ng/mL) for 18 hours. Secreted luciferase activity were measured using quant-luc reagents (1 bag of luc reagent dilute to 40 mL, use 10 μL per well). Data were normalized to vehicle control and graphed. Compound IC50 towards inhibiting NF-κB were determined through Prism. Similarly, 10k human PBMCs cells were cultured in 384 well plate (per well). Cells were treated with compounds with various concentrations for 2 hours before addition of LPS (10 ng/ml) for 18 hours, and supernatants were collected and assayed for TNF ELISA. Compound IC50 towards inhibiting TNF release were determined through Prism. • Activity: “+”>10 μM, “++”>1 μM and <10 μM, “+++”>0.1 μM and <1 μM, “++++”<0.1 μM.

[2] = test system: NF-κB; assay: NF-κB assay: THP1-NF-κB-LUC cells, LPS-stimulated secreted luciferase; format: cell-based; settings: read-out: IC50 (NF-κB assay)
Procedure, shortened: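 THP1-NF-κB-LUC cells (25k/well) were pretreated with compounds for 2 h, then stimulated with LPS (10 ng/mL) for 18 h. Secreted luciferase was measured and normalized to vehicle, and IC50 was fitted from the concentration series.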

[3] = human PBMCs, compounds 2 hours before LPS (10 ng/ml) for 18 hours, supernatant TNF ELISA
[4] = THP1-NF-κB-LUC cells, compounds 2 hours before LPS (10 ng/mL) for 18 hours, secreted luciferase
[5] = LPS-stimulated human PBMCs, TNF ELISA
[6] = THP1-NF-κB-LUC cells, LPS-stimulated

Row | Compound | IC50 [2, 4] [nM] | IC50 [2, 6] [nM] | also measured
1 | CCC1Oc2c(cc(Cl)cc2S(=O)(=O)Nc2ccc(F)cc2)NC1=O (centres unmarked) [BC19732] | < 100 |  | IC50 [1, 3]: 1 to 10 µM
2 | COc1ncc(-c2ccc3nc(-c4ccc(F)cc4)c(-c4ccc(F)cc4)nc3c2)cc1F [BC19303] |  | > 10000 | IC50 [1, 5]: > 10 µM
3 | CC(C)NC(=O)N1c2cc(S(=O)(=O)N3CCCC3)ccc2NC(=O)C1C (centres unmarked) [BC19298] |  | < 100 | IC50 [1, 5]: > 10 µM
4 | CCC1Oc2cc(S(=O)(=O)Nc3cccc(C(C)=O)c3)c(Cl)cc2NC1=O (centres unmarked) [BC19282] | 100 to 1000 |  | IC50 [1, 3]: > 10 µM
5 | O=S(=O)(CC1CC1)c1sc(-c2ccc3ccccc3c2)nc1S(=O)(=O)c1ccc(Cl)cc1 [BC19676] |  | 1000 to 10000 | IC50 [1, 5]: > 10 µM
6 | CN(C)c1ccc(CNC(=O)c2ccc3nc(-c4ccc(F)cc4)c(-c4ccc(F)cc4)nc3c2)cc1 [BC18478] |  | 100 to 1000 | 
7 | Cc1ccc(S(=O)(=O)c2cn(C)c3cc(F)c(F)cc3c2=O)cc1 [BC18324] | > 10000 |  | 
8 | CC(C)CS(=O)(=O)c1oc(-c2ccc(F)cc2)nc1S(=O)(=O)c1ccc(F)cc1 [BC18587] |  | < 100 | 
9 | Cc1cc2c(cc1S(=O)(=O)N(C)c1ccc(Br)cc1)OCC(=O)N2 [BC181316] | > 10000 |  | 
10 | COc1ccc2[nH]cc(S(=O)(=O)c3ccc(C)c(F)c3)c(=O)c2c1 [BC18307] | 100 to 1000 |  | 
11 | CCc1ccc(C(=O)C2=CN(c3ccccc3)c3ccc(F)cc3S2(=O)=O)cc1 [BC18318] | > 10000 |  | 
12 | COc1ccc(OC)c(NS(=O)(=O)c2cc3c(cc2C)NC(=O)CO3)c1 [BC181357] | > 10000 |  | 
13 | COCCNC(=O)c1ccc2nc(-c3ccccc3)c(-c3ccccc3)nc2c1 [BC18422] |  | < 100 | 
14 | O=C(CSc1oc(-c2ccc(F)cc2)nc1S(=O)(=O)c1ccc(Cl)cc1)c1ccc(F)cc1 [BC18530] |  | 1000 to 10000 | 
15 | COc1ccc(NS(=O)(=O)c2cc3c(cc2C)NC(=O)CO3)c(OC)c1 [BC181376] | > 10000 |  | 
16 | CN1CCN(CCNC(=O)c2ccc3nc(-c4ccc(F)cc4)c(-c4ccc(F)cc4)nc3c2)CC1 [BC18460] |  | < 100 | 
17 | CSc1oc(-c2ccccc2)nc1S(=O)(=O)c1ccc(Cl)cc1 [BC18513] |  | > 10000 | 
18 | CC(C)CS(=O)(=O)c1oc(-c2ccc(F)cc2)nc1S(=O)(=O)c1ccc(Cl)cc1 [BC18555] |  | < 100 | 
19 | CCCS(=O)(=O)c1oc(-c2ccc(F)cc2)nc1S(=O)(=O)c1ccc(Br)cc1 [BC18588] |  | < 100 | 
20 | Cc1cccc(-c2nc3ccc(C(=O)NCCN4CCOCC4)cc3nc2-c2cccc(C)c2)c1 [BC18425] |  | 1000 to 10000 | 
21 | Cc1cc2c(cc1S(=O)(=O)Nc1ccc3c(c1)OCCO3)OCC(=O)N2 [BC181342] | 100 to 1000 |  | 
22 | O=C(c1ccc2nc(-c3ccccc3)c(-c3ccccc3)nc2c1)N1CCN(c2ccccc2)CC1 [BC18412] |  | 1000 to 10000 | 
23 | CCCSc1oc(-c2ccccc2)nc1S(=O)(=O)c1ccc(Cl)cc1 [BC18535] |  | 1000 to 10000 | 
24 | CCSc1oc(-c2ccc(F)cc2)nc1S(=O)(=O)c1ccc(Cl)cc1 [BC18573] |  | 1000 to 10000 | 
25 | Cc1cc2c(cc1S(=O)(=O)Nc1ccccc1Cl)OCC(=O)N2 [BC181380] | 100 to 1000 |  | 
26 | CCOCCCNC(=O)c1ccc2nc(-c3ccc(F)cc3)c(-c3ccc(F)cc3)nc2c1 [BC18404] |  | < 100 | 

Row | Compound | IC50 [2, 4] [nM] | IC50 [2, 6] [nM] | also measured
27 | CCC(C)Sc1oc(-c2ccccc2)nc1S(=O)(=O)c1ccc(Cl)cc1 (centres unmarked) [BC18568] |  | 1000 to 10000 | 
28 | CC(CNC(=O)c1ccc2nc(-c3ccc(F)cc3)c(-c3ccc(F)cc3)nc2c1)c1ccccc1 (centres unmarked) [BC18467] |  | 100 to 1000 | 
29 | CCOc1ccc2[nH]cc(S(=O)(=O)c3ccc(CO)cc3)c(=O)c2c1 [BC18323] | 100 to 1000 |  | 
30 | CCSc1oc(-c2ccc(F)cc2)nc1S(=O)(=O)c1ccc(F)cc1 [BC18561] |  | 1000 to 10000 | 
31 | COc1cc(NS(=O)(=O)c2cc3c(cc2C)N(C(C)=O)CCO3)cc(OC)c1 [BC181307] |  |  | IC50 [2]: > 10000 nM
32 | COc1ccc(Cl)cc1NS(=O)(=O)c1cc2c(cc1C)NC(=O)CO2 [BC181358] | > 10000 |  | 
33 | CCc1ccc(NS(=O)(=O)c2cc3c(cc2C)N(C)CCO3)cc1 [BC181352] | > 10000 |  | 
34 | COc1cccc(NS(=O)(=O)c2cc3c(cc2C)N(C(C)=O)CCO3)c1 [BC181317] | > 10000 |  | 
35 | CCSc1oc(-c2ccc(F)cc2)nc1S(=O)(=O)c1ccccc1 [BC18526] |  | 1000 to 10000 | 
36 | COc1cccc2cc(S(=O)(=O)c3ccc(C)c(Cl)c3)c(=O)oc12 [BC18319] | > 10000 |  | 
37 | CCN(CC)CCNC(=O)c1ccc2nc(-c3ccc(F)cc3)c(-c3ccc(F)cc3)nc2c1 [BC18426] |  | < 100 | 
38 | COc1ccc(NS(=O)(=O)c2cc3c(cc2C)N(C)CCO3)cc1 [BC181319] | > 10000 |  | 
39 | CC(C)CCNC(=O)c1ccc2nc(-c3ccccc3)c(-c3ccccc3)nc2c1 [BC18465] |  | 100 to 1000 | 
40 | COc1ccc(-c2nc3ccc(C(=O)NCCN4CCOCC4)cc3nc2-c2ccc(OC)cc2)cc1 [BC18453] |  | 1000 to 10000 | 
41 | Cc1ccc(S(=O)(=O)c2cc3cc(Cl)ccc3oc2=O)cc1Cl [BC18313] | > 10000 |  | 
42 | CCCSc1oc(-c2ccc(F)cc2)nc1S(=O)(=O)c1ccc(Cl)cc1 [BC18584] |  | > 10000 | 
43 | Cc1cc(C)cc(NS(=O)(=O)c2cc3c(cc2C)NC(=O)CO3)c1 [BC181378] | 1000 to 10000 |  | 
44 | COc1ccc(S(=O)(=O)c2c[nH]c3cc(F)ccc3c2=O)cc1 [BC18309] | 1000 to 10000 |  | 
45 | O=C(NCc1cccs1)c1ccc2nc(-c3ccc(F)cc3)c(-c3ccc(F)cc3)nc2c1 [BC18481] |  | < 100 | 
46 | CCCSc1oc(-c2ccc(F)cc2)nc1S(=O)(=O)c1ccccc1 [BC18537] |  | 1000 to 10000 | 
47 | Cc1cccc(-c2nc3ccc(C(=O)NCc4ccc(Cl)cc4)cc3nc2-c2cccc(C)c2)c1 [BC18457] |  | > 10000 | 
48 | Cc1cc2c(cc1S(=O)(=O)Nc1cccc(Cl)c1)OCC(=O)N2 [BC181354] | < 100 |  | 
49 | CCCCCSc1oc(-c2ccc(F)cc2)nc1S(=O)(=O)c1ccccc1 [BC18538] |  | > 10000 | 
50 | O=C(NCCCN1CCCC1)c1ccc2nc(-c3ccc(F)cc3)c(-c3ccc(F)cc3)nc2c1 [BC18438] |  | < 100 | 
51 | Cc1cc2c(cc1S(=O)(=O)Nc1ccc(F)cc1F)OCCN2C [BC181341] | 1000 to 10000 |  | 
52 | CSc1oc(-c2ccc(F)cc2)nc1S(=O)(=O)c1ccc(Br)cc1 [BC18552] |  | > 10000 | 

Row | Compound | IC50 [2, 4] [nM] | IC50 [2, 6] [nM] | also measured
53 | Cc1ccc(S(=O)(=O)c2nc(-c3ccc(F)cc3)oc2SC(C)C)cc1 [BC18582] |  | 1000 to 10000 | 
54 | Cc1ccc(NS(=O)(=O)c2cc3c(cc2Cl)NC(=O)CO3)cc1F [BC181343] | < 100 |  | 
55 | COc1ccc(NS(=O)(=O)c2cc3c(cc2C)NC(=O)CO3)cc1Cl [BC181369] | 1000 to 10000 |  | 
56 | CC(C)CSc1oc(-c2ccccc2)nc1S(=O)(=O)c1ccc(Cl)cc1 [BC18579] |  | 1000 to 10000 | 
57 | CC(=O)N1CCOc2cc(S(=O)(=O)Nc3ccc(Cl)cc3)c(C)cc21 [BC181361] | 100 to 1000 |  | 
58 | COc1ccc(OC)c(N(C)S(=O)(=O)c2cc3c(cc2C)NC(=O)CO3)c1 [BC181360] | > 10000 |  | 
59 | CCOc1ccc(NS(=O)(=O)c2cc3c(cc2C)N(C)CCO3)cc1 [BC181374] | > 10000 |  | 
60 | COc1ccc(NS(=O)(=O)c2cc3c(cc2C)N(C(C)=O)CCO3)cc1OC [BC181381] | > 10000 |  | 
61 | O=C(NCCCN1CCCC1=O)c1ccc2nc(-c3ccc(F)cc3)c(-c3ccc(F)cc3)nc2c1 [BC18459] |  | < 100 | 
62 | COc1ccc(S(=O)(=O)c2cn(CC(=O)Nc3ccc(Cl)cc3)c3ccc(C)cc3c2=O)cc1 [BC18334] | > 10000 |  | 
63 | N#Cc1ccc2c(=O)c(S(=O)(=O)c3ccc(F)c(Cl)c3)c[nH]c2c1 [BC18300] | 100 to 1000 |  | 
64 | CCC(C)S(=O)(=O)c1oc(-c2ccc(F)cc2)nc1S(=O)(=O)c1ccc(C)cc1 (centres unmarked) [BC18521] |  | < 100 | 
65 | CC(=O)Nc1ccc(NS(=O)(=O)c2cc3c(cc2C)NC(=O)CO3)cc1 [BC181385] | > 10000 |  | 
66 | Cc1ccc(-c2nc(S(=O)(=O)c3ccc(Cl)cc3)c(SC(C)C)o2)cc1 [BC18569] |  | 1000 to 10000 | 
67 | CSc1oc(-c2ccc(F)cc2)nc1S(=O)(=O)c1ccc(C)cc1 [BC18549] |  | > 10000 | 
68 | Cc1cc2c(cc1S(=O)(=O)Nc1cccc(Br)c1)OCC(=O)N2 [BC181321] | < 100 |  | 
69 | O=C(NCCN1CCCCC1)c1ccc2nc(-c3ccc(F)cc3)c(-c3ccc(F)cc3)nc2c1 [BC18456] |  | < 100 | 
70 | COc1ccc(S(=O)(=O)c2cn(CC(=O)Nc3ccccc3)c3ccc(F)cc3c2=O)cc1 [BC18332] | > 10000 |  | 
71 | CCC(C)S(=O)(=O)c1oc(-c2ccc(F)cc2)nc1S(=O)(=O)c1ccccc1 (centres unmarked) [BC18553] |  | < 100 | 
72 | CCCCSc1oc(-c2ccc(F)cc2)nc1S(=O)(=O)c1ccccc1 [BC18559] |  | 1000 to 10000 | 
73 | Cc1cccc(-c2nc3ccc(C(=O)NCc4ccc(F)cc4)cc3nc2-c2cccc(C)c2)c1 [BC18414] |  | > 10000 | 
74 | CCCCSc1oc(-c2ccc(F)cc2)nc1S(=O)(=O)c1ccc(F)cc1 [BC18506] |  | > 10000 | 
75 | CCN(CC)C(=O)c1ccc2nc(-c3ccccc3)c(-c3ccccc3)nc2c1 [BC18400] |  | < 100 | 
76 | CCN(c1ccccc1)S(=O)(=O)c1cc2c(cc1C)NC(=O)CO2 [BC181345] | > 10000 |  | 
77 | COc1ccc2[nH]cc(S(=O)(=O)c3ccc(OC)c(OC)c3)c(=O)c2c1 [BC18338] | > 10000 |  | 
78 | Cc1ccc(S(=O)(=O)c2c[nH]c3cc(Cl)ccc3c2=O)cc1F [BC18302] | < 100 |  | 
